# Key:
# Conditions in all cases: 72 h
# Vero E6 [1] = test: drug sensitivity score (DSS) for viability; higher = more toxic; extreme values may be limits of the assay
# U2OS [2] = test: as above
# HepG2 [3] = test: as above
# Caco-2 [4] = test: as above
# Vero E6 [5] = test: relative viability EC50 (midpoint between 100% and the lowest measured viability); higher = less toxic
# U2OS [6] = test: as above
# HepG2 [7] = test: as above
# Caco-2 [8] = test: as above
# Vero E6 [9] = test: cell viability relative to DMSO; higher = less toxic
# U2OS [10] = test: as above
# HepG2 [11] = test: as above
# Caco-2 [12] = test: as above
# Calu-3 [13] = test: drug sensitivity score (DSS) for viability; higher = more toxic; extreme values may be limits of the assay
# Calu-3 [14] = test: relative viability EC50 (midpoint between 100% and the lowest measured viability); higher = less toxic
# Calu-3 [15] = test: cell viability relative to DMSO; higher = less toxic
SMILES,drug sensitivity score (Vero E6 [1]),drug sensitivity score (U2OS [2]),drug sensitivity score (HepG2 [3]),drug sensitivity score (Caco-2 [4]),relative viability EC50 (Vero E6 [5]) [µM],relative viability EC50 (U2OS [6]) [µM],relative viability EC50 (HepG2 [7]) [µM],relative viability EC50 (Caco-2 [8]) [µM],cell viability (Vero E6 [9]; 1 nM) [%],cell viability (Vero E6 [9]; 10 nM) [%],cell viability (Vero E6 [9]; 100 nM) [%],cell viability (Vero E6 [9]; 1000 nM) [%],cell viability (Vero E6 [9]; 10000 nM) [%],cell viability (U2OS [10]; 1 nM) [%],cell viability (U2OS [10]; 10 nM) [%],cell viability (U2OS [10]; 100 nM) [%],cell viability (U2OS [10]; 1000 nM) [%],cell viability (U2OS [10]; 10000 nM) [%],cell viability (HepG2 [11]; 1 nM) [%],cell viability (HepG2 [11]; 10 nM) [%],cell viability (HepG2 [11]; 100 nM) [%],cell viability (HepG2 [11]; 1000 nM) [%],cell viability (HepG2 [11]; 10000 nM) [%],cell viability (Caco-2 [12]; 1 nM) [%],cell viability (Caco-2 [12]; 10 nM) [%],cell viability (Caco-2 [12]; 100 nM) [%],cell viability (Caco-2 [12]; 1000 nM) [%],cell viability (Caco-2 [12]; 10000 nM) [%],drug sensitivity score (Calu-3 [13]),relative viability EC50 (Calu-3 [14]) [µM],cell viability (Calu-3 [15]; 1 nM) [%],cell viability (Calu-3 [15]; 10 nM) [%],cell viability (Calu-3 [15]; 100 nM) [%],cell viability (Calu-3 [15]; 1000 nM) [%],cell viability (Calu-3 [15]; 10000 nM) [%]
CCNCc1cc(C(C)(C)C)c(O)c(C(C)(C)C)c1,0,0,0,0,> 10,> 10,> 10,> 10,101,104,96.7,97.2,105,102,103,98.5,101,96.5,99.1,99.7,99.6,98.4,105,103,97.8,96.1,98.2,99.8,,,,,,,
CN1C(=O)N(c2cc(Cl)cc(Cl)c2)C(=O)[C@]12CN(Cc1cc(C(=O)O)cs1)C[C@H]2c1ccc(C#N)cc1,0,0,0,0,> 10,> 10,> 10,> 10,98.3,101,95.5,96.6,105,104,97.8,101,103,100,101,112,109,98.1,104,109,94.8,100,103,93.7,,,,,,,
C[C@H](N)C(=O)N[C@@]1(C(=O)O)C[C@@H](Sc2nnc[nH]2)[C@H]2[C@H](C(=O)O)[C@H]21,,0,0,0,,> 10,> 10,> 10,,,,,,105,96.9,105,100,104,101,94.7,99.6,110,91,108,100,103,98.9,101,0,> 10,102,92.6,96.1,114,110
Cc1cc(C)c(N)c(C#Cc2cccc(F)c2)n1,0,0,0.7,2.2,> 10,> 10,> 10,,99.5,106,98.6,103,90.8,102,97.5,102,97.3,90.9,95.3,98.4,81.6,88.1,90.7,99.6,88.9,101,93.2,71.6,0,> 10,104,102,95.9,102,87.7
Cc1nc2ccc(-n3ncc(C(=O)c4cc5ccccc5[nH]4)c3N)cc2[nH]1,2.2,1.9,0.7,0.8,,> 10,> 10,> 10,96.5,96,93.6,89.4,69,99,94.5,97.8,84.1,84.3,94.6,99,87.3,104,76.2,100,94.5,92.9,86.4,89.3,0.7,> 10,100,86.9,98.4,87.6,84.7
Nc1nc(NCCc2ccc(O)cc2)nc2nc(-c3ccco3)nn12,0,0,9.7,0.9,> 10,> 10,0.648,,95.1,95.3,98.1,94.6,95,99.5,103,102,103,94.5,109,98.6,103,49.2,32.2,97.2,94.5,103,104,72.5,0,> 10,96.1,110,97.3,98.2,106
CC12CCC(C(Br)C1=O)C2(C)C (configuration not stated) [3-bromocamphor],0,0,0,0,> 10,> 10,> 10,> 10,91.8,102,92.2,103,104,99.6,95.1,100,97.1,101,94.1,87.3,94.3,101,104,88.5,94.3,96.6,95.2,94.8,,,,,,,
O=c1[nH]cnc2ccccc12 [4-HQN],0,0,0,0,> 10,> 10,> 10,> 10,99.9,93.8,94.8,92.1,100,95.2,98.7,94.5,101,102,104,86.9,113,99.1,108,86.3,94.6,91,101,107,,,,,,,
c1ccc(-c2oc3ncnc(NC[C@@H]4CCCO4)c3c2-c2ccccc2)cc1 [AIM-100],0,0,0,1,> 10,> 10,> 10,,90.2,98.6,96.6,87.2,95.9,103,102,105,101,95.5,83.4,98.6,99.8,97.4,95.6,115,92.6,96.6,104,71.3,1.3,,106,92.2,96.6,97.7,74.7
COCCOc1cnc2ccn([C@H](C)c3nnc4c(F)cc(-c5cnn(C)c5)cn34)c(=O)c2c1 [AMG-337],,0,0,0,,> 10,> 10,> 10,,,,,,93,99.1,102,98,100,100,102,99.2,91.5,93.5,104,103,92.9,101,97.2,0,> 10,101,89,98.4,114,95.2
CNC(=O)CN1CCC(Oc2cc3c(Nc4cccc(Cl)c4F)ncnc3cc2OC)CC1 [AZD8931],10.2,0.1,0.5,4.6,0.233,> 10,> 10,,97.2,97.7,78.3,58.5,42.1,95.4,94.8,93.6,89.6,87.9,106,95.7,87.8,95.2,85.2,96.5,93.7,90.2,77.7,65.5,18.2,0.0843,109,80.5,60.7,33.8,22.5
Cc1cc(-c2nc(-c3ccc(OC(F)(F)F)cc3)no2)nn1Cc1ccnc(N2CCN(C3CC3)CC2)c1 [BAY-87-2243],0.4,6.5,31.4,8,> 10,,0.0071,,95.8,98.8,94.3,91,85.1,97.3,95.3,81.5,73.5,66.6,93.1,50.4,20.8,17.8,18.7,99.4,99,73.7,74.7,71.1,0.2,> 10,98.5,94.4,92.9,87.7,92
O=C1c2ccccc2CCC1CNCCc1ccc(O)cc1 (configuration not stated) [BE-2254],,0,3,0,,> 10,3.45,> 10,,,,,,95.8,97.3,100,99.3,95.5,114,96,96.7,103,39.1,104,100,99.5,104,98,0,> 10,106,93.3,95.7,101,96.2
COc1ccc2c(c1)c(CC(=O)N1CCOCC1)c(C)n2C(=O)c1ccc(Cl)cc1 [BML-190],,0,0.5,0.2,,> 10,> 10,> 10,,,,,,96.2,101,106,99.3,112,102,102,104,88,94.8,91.4,109,96.7,101,85.6,0,> 10,106,106,92.7,108,96.9
Cc1nc(C#Cc2ccnc(Cl)c2)c(C)n1-c1ccc(OC(F)(F)F)cc1 [CTEP],0,2.1,0.2,4,> 10,,> 10,,102,100,91.8,102,94.5,94.6,98.2,95.5,100,58.2,100,88.6,100,91.5,85.1,93.9,107,86.9,84.6,55.8,0,> 10,99.2,101,93,96.5,92.3
Cc1ccc2c(c1)=C(c1ccccc1)C(C1=NN(C(=O)CCC(=O)O)C(c3ccc(Br)cc3)C1)C(=O)N=2 (configuration not stated) [DQP-1105],0,0,0,0,> 10,> 10,> 10,> 10,95.9,100,100,97.7,96.9,102,110,97.4,100,94.9,106,105,97.9,95.2,105,94.1,97.7,97.2,90.2,96.1,,,,,,,

# From the supplement of paper PMC13380429
